# Measured values from patent publication US9663478B2, “Benzotriazine oxides as drugs targeting Mycobacterium tuberculosis” (priority 2011, dated 2017).
# Like-named read-outs stand apart in the source and are kept apart here.
# Assays:
# [1] = system: NRP Mtb H37Rv cells; test: Low-oxygen recovery assay (LORA) MIC; format: cell-based, Mycobacterium tuberculosis; settings: for MIC: Mycobacterium tuberculosis, H37RV, read-out: LORA MIC - ITR; for LORA MIC: Tables P1, P2, non-replicating M. tuberculosis
# [2] = system: Vero cells; settings: African green monkey, 72 h
# [3] = system: Mtb H37Rv; test: TB MIC - SRI, resazurin-based microplate assay; format: cell-based, Mycobacterium tuberculosis; settings: Mycobacterium tuberculosis, H37RV, read-out: TB MIC - SRI
# [4] = system: Mtb H37Rv; test: TB MIC - ITR (UIC), Institute for Tuberculosis Research; format: cell-based, Mycobacterium tuberculosis; settings: for MIC: Mycobacterium tuberculosis, H37RV, Tables 1-4, read-out: TB MIC - ITR; for TB MIC - UIC: Tables P1, P2
# [5] = system: Salmonella typhimurium tester strain TA100; test: Salmonella/microsome plate incorporation assay (Ames screen), TA100; format: cell-based
# Source text: (§1) A liability in developing any bioreductively-activated antimicrobial drug is the potential for mutagenicity. Because the basis for activity of these compounds is the generation of intermediate radical species, undesirable mutagenicity poses a risk, as has been documented for many classes of bioreductive drugs, including the BTO tirapazamine (TPZ).^19,20 The most convenient methodology for assessing the potential to induce genetic damage is to use the plate incorporation method with Salmonella typhimurium strains TA98 and TA100, commonly known as the Ames assay. The Salmonella tester strains have mutations in the histidine operon, a mutation that leads to defective lipopolysaccharide (rfa), and a deletion that covers genes involved in the synthesis of biotin (bio) and in the repair of ultraviolet-induced DNA damage (uvrB).^21,22 These mutations make the strains more permeable to many molecules and increase their susceptibility to the mutagenic effects of these molecules. Given that the hypothesized mechanism of the BTO compounds is to selectively form cytotoxic radical species in bacteria over mammalian cells, a microbial mutagenicity assay is not ideal, but was used to benchmark their activities in this assay. […] Individual plate counts and their means and standard deviations, along with the condition of the background lawn, are presented in SI Table 2.
# (§2) Experimental compounds were screened for microbial mutagenicity activity using the plate incorporation method with Salmonella typhimurium tester strains TA98 and TA100, in the presence and absence of an Aroclor 1254-induced rat-liver metabolic activation system containing 10% S9 (MA). The presence of the appropriate genetic characteristics was verified for the strains used in this study. Stock solutions were made by dissolving each test sample in dimethyl sulfoxide (DMSO) at 5 mg/ml. These initial stock concentrations were then serially diluted to achieve dose formulations of 100, 50, 10, 5, 1, 0.5, and 0.1 μg/plate (dosing volume 100 μl). Test plates were compared with the control plates for their revertant count and for the condition of the background bacterial lawn. A test article was considered a mutagen when the mean number of revertant colonies on the test plates exceeds the mean solvent control counts by at least a two-fold margin. Dose relatedness was also taken into account when evaluating a mutagenic response. Cytotoxicity was estimated by several parameters: a substantial decrease in the number of revertant colonies on the test plates, clearing or absence of the background bacterial lawn growth, formation of pinpoint nonrevertant colonies, or complete absence of bacterial growth.
# [6] = system: Salmonella typhimurium tester strain TA98; test: Salmonella/microsome plate incorporation assay (Ames screen), TA98; format: cell-based; settings: TA98, with metabolic activation (10% S9), 2 μg per plate, positive control
# Source text: as §1, §2
# [7] = TA100, with metabolic activation (10% S9), 2 μg per plate, positive control
# [8] = TA100, without metabolic activation, 5 μg per plate
smiles,measurement,setting,value
"[O-][n+]1nc(NC2CCC2)[n+]([O-])c2ccc(F)cc21 [Compound 15ad, 3-(cyclobutylamino)-7-fluorobenzo[e][1,2,4]triazine 1,4-dioxide]",MIC,[1],0.88 µg/mL
same,Vero Tox CC50,[2],1.6 µg/mL
same,MIC,[3]; Tables 1-4 and text,0.31 µg/mL
same,MIC,[4],0.4 µg/mL
Nc1ccc2cc3ccccc3cc2c1 [Compound 2AN],Mean revertants per plate,[5]; [7],490.0
same,Ratio treated/solvent,[5]; [7],2.9
same,Ratio treated/solvent,[6],15.3
COCCNC(=O)c1ccc2c(c1)[n+]([O-])c(C(C)=O)c(C)[n+]2[O-] [Cmpd 5],MIC,"[1]; NRP Mtb, Tables 1-4 and text",> 32 µg/mL
same,Vero Tox CC50,[2],>16 µg/mL
same,MIC,[3]; Tables 1-4 and text,10 µg/mL
same,MIC,[4],27 µg/mL
[O-][n+]1nc(NC2CCC2)[n+]([O-])c2ccc(Cl)cc21 [SRI-012302],LORA MIC,[1],< 0.125 µg/mL
same,VERO Tox-SRI,[2],1.6
same,MIC,[3]; Tables P1-P3,0.156 µg/mL
same,TB MIC - UIC,[4],< 0.125 µg/mL
CCNc1n[n+]([O-])c2cc(F)ccc2[n+]1[O-] [SRI-012284],LORA MIC,[1],0.75 µg/mL
same,VERO Tox-SRI,[2],4.6
same,MIC,[3]; Tables P1-P3,0.625 µg/mL
same,TB MIC - UIC,[4],0.35 µg/mL
[N-]=[N+]=[N-].[Na+] [SA],Mean revertants per plate,[5]; [8],1620.0
same,Ratio treated/solvent,[5]; [8],10.0
[O-][n+]1nc(NC2CCCCCC2)[n+]([O-])c2ccc(F)cc21 [SRI-012282],LORA MIC,[1],0.21 µg/mL
same,VERO Tox-SRI,[2],<2.5
same,MIC,[3]; Tables P1-P3,0.625 µg/mL
same,TB MIC - UIC,[4],0.39 µg/mL
"CO[C@H]1/C=C/O[C@@]2(C)Oc3c(C)c(O)c4c(O)c(c(/C=N/N5CCN(C)CC5)c(O)c4c3C2=O)NC(=O)/C(C)=C\C=C\[C@H](C)[C@H](O)[C@@H](C)[C@@H](O)[C@@H](C)[C@H](OC(C)=O)[C@@H]1C [RIF, Rifampin, reference compound]",MIC,"[1]; NRP Mtb, Tables 1-4 and text",2 µg/mL
same,Vero Tox CC50,[2],>50 µg/mL
same,MIC,[3]; Tables 1-4 and text,0.003 µg/mL
same,MIC,[4],0.041 µg/mL
"[O-][n+]1nc(NC2CCCC2)[n+]([O-])c2ccccc21 [Compound 8e, 3-(cyclopentylamino)benzo[e][1,2,4]triazine 1,4-dioxide]",MIC,"[1]; NRP Mtb, Tables 1-4 and text",0.68 µg/mL
same,Vero Tox CC50,[2],10 µg/mL
same,MIC,[3]; Tables 1-4 and text,2.5 µg/mL
same,MIC,[4],3.6 µg/mL
[O-][n+]1nc(NC2CCCCC2)[n+]([O-])c2ccc(F)cc21 [SRI-012275],LORA MIC,[1],0.47 µg/mL
same,VERO Tox-SRI,[2],<2.5
same,MIC,[3]; Tables P1-P3,0.625 µg/mL
same,TB MIC - UIC,[4],0.68 µg/mL
